Results on one molecule are retold here after US8592359B2 (priority 2010, dated 2013).

This assay concerns amylase Stainzyme® 12,0 1. Kind of assay: Residual amylolytic activity after storage in a liquid washing agent (starch / dinitrosalicylic acid). Type of assay: biochemical. To be noted: 1 wt % stabilizer, 4 weeks at 30° C., initial activity 100%. The source says:
A liquid washing agent of the following composition serves as a baseline washing agent formulation (all indications in percent by weight): 0.3 to 0.5% xanthan, 0.2 to 0.4% antifoaming agent, 6 to 7% glycerol, 0.3 to 0.5% ethanol, 4 to 7% FAEOS (fatty alcohol ether sulfate), 24 to 28% nonionic surfactants, 1 to 2% sodium citrate (dihydrate), 2 to 4% soda, 14 to 16% coconut fatty acids, 0.5% HEDP (1-hydroxyethane-(1,1-diphosphonic acid)), 0 to 0.4% PVP (polyvinylpyrrolidone), 0 to 0.05% optical brightener, 0 to 0.001% dye, remainder demineralized water.
The monosaccharide glycerate glucosyl glycerate was incorporated, as the component stabilizing the hydrolytic enzyme, into the baseline washing agent formulation according to Example 2 (see Table 2, indications in this regard in wt %). […] The amylase used was the Stainzyme® 12,0 1 product of the company Novozymes A/S. The amylase was used in the washing agent either alone or in combination with the protease of Example 2 (utilization quantity: 1.0 wt % amylase and/or 1.0 wt % protease, respectively active substance).
After storage, the respective residual amylolytic activity was determined by incubating the samples under defined reaction conditions (tris-maleate buffer, pH 6.5, 50° C., 15 min) with 0.67% starch (FLUKA no. 85642, from potatoes, soluble, pretreated per Zulkowsky (treated with glycerol at 190° C.)). […]

On to `OB(O)O` [boric acid], for which the “residual amylolytic activity after storage” value amounted to 92% (with protease (1.0 wt %)) and 97% (without protease).
